In the CheMixHub viscosity set:
“And” between values parts separate entries of the source, which are not always exact repeats. Identical values can stand only once.

Assay: xn = mol fraction of the nth substance listed

CCCO + O
Settings	viscosity
293.15 K, 100 kPa, x1 = 0.07	2.217 mPa·s
293.15 K, 100 kPa, x1 = 0.2	3.175 mPa·s and 3.013 mPa·s
293.15 K, 101 kPa, x1 = 0.01	1.156 mPa·s
293.15 K, 101 kPa, x1 = 0.02	1.335 mPa·s
293.15 K, 101 kPa, x1 = 0.05	1.898 mPa·s
293.15 K, 101 kPa, x1 = 0.07	2.209 mPa·s
293.15 K, 101 kPa, x1 = 0.1	2.545 mPa·s
293.15 K, 101 kPa, x1 = 0.2838	3.191 mPa·s
293.15 K, 101 kPa, x1 = 0.3	3.173 mPa·s
293.15 K, 101 kPa, x1 = 0.4	3.053 mPa·s
293.15 K, 101 kPa, x1 = 0.5	2.88 mPa·s
293.15 K, 101 kPa, x1 = 0.6	2.707 mPa·s
293.15 K, 101 kPa, x1 = 0.7001	2.537 mPa·s
293.15 K, 101 kPa, x1 = 0.8	2.403 mPa·s
298.15 K, 101 kPa, x1 = 0.0058	0.9625 mPa·s
298.15 K, 101 kPa, x1 = 0.01	1.024 mPa·s
298.15 K, 101 kPa, x1 = 0.02	1.16 mPa·s
298.15 K, 101 kPa, x1 = 0.0237	1.225 mPa·s
298.15 K, 101 kPa, x1 = 0.0461	1.552 mPa·s
298.15 K, 101 kPa, x1 = 0.05	1.603 mPa·s
298.15 K, 101 kPa, x1 = 0.0678	1.82 mPa·s
298.15 K, 101 kPa, x1 = 0.07	1.844 mPa·s
298.15 K, 101 kPa, x1 = 0.0976	2.164 mPa·s
298.15 K, 101 kPa, x1 = 0.1195	2.263 mPa·s
298.15 K, 101 kPa, x1 = 0.1833	2.576 mPa·s
298.15 K, 101 kPa, x1 = 0.2398	2.682 mPa·s
298.15 K, 101 kPa, x1 = 0.2838	2.685 mPa·s
298.15 K, 101 kPa, x1 = 0.3108	2.702 mPa·s
298.15 K, 101 kPa, x1 = 0.4	2.592 mPa·s
298.15 K, 101 kPa, x1 = 0.4971	2.511 mPa·s
298.15 K, 101 kPa, x1 = 0.5	2.465 mPa·s
298.15 K, 101 kPa, x1 = 0.6	2.333 mPa·s
298.15 K, 101 kPa, x1 = 0.6916	2.236 mPa·s
298.15 K, 101 kPa, x1 = 0.7001	2.202 mPa·s
298.15 K, 101 kPa, x1 = 0.8	2.097 mPa·s
298.15 K, 101 kPa, x1 = 0.8011	2.129 mPa·s
298.15 K, 101 kPa, x1 = 0.8967	2.039 mPa·s
298.15 K, 101 kPa, x2 = 0.0021	1.985 mPa·s
298.15 K, 101 kPa, x2 = 0.0695	2.041 mPa·s
298.15 K, 101 kPa, x2 = 0.0932	2.063 mPa·s
298.15 K, 101 kPa, x2 = 0.1232	2.085 mPa·s
298.15 K, 101 kPa, x2 = 0.1439	2.104 mPa·s
298.15 K, 101 kPa, x2 = 0.1892	2.142 mPa·s
298.15 K, 101 kPa, x2 = 0.2084	2.16 mPa·s
298.15 K, 101 kPa, x2 = 0.9678	1.11 mPa·s
298.15 K, 101.3 kPa, x1 = 0.01	1.027 mPa·s
298.15 K, 101.3 kPa, x1 = 0.025	1.247 mPa·s
298.15 K, 101.3 kPa, x1 = 0.045	1.55 mPa·s
298.15 K, 101.3 kPa, x1 = 0.065	1.81 mPa·s
298.15 K, 101.3 kPa, x1 = 0.08	1.969 mPa·s
303.15 K, 101 kPa, x1 = 0.01	0.906 mPa·s
303.15 K, 101 kPa, x1 = 0.02	1.019 mPa·s
303.15 K, 101 kPa, x1 = 0.05	1.366 mPa·s
303.15 K, 101 kPa, x1 = 0.07	1.555 mPa·s
303.15 K, 101 kPa, x1 = 0.1	1.786 mPa·s
303.15 K, 101 kPa, x1 = 0.2838	2.277 mPa·s
303.15 K, 101 kPa, x1 = 0.3	2.267 mPa·s
303.15 K, 101 kPa, x1 = 0.4	2.216 mPa·s
303.15 K, 101 kPa, x1 = 0.5	2.118 mPa·s
303.15 K, 101 kPa, x1 = 0.6	2.023 mPa·s
303.15 K, 101 kPa, x1 = 0.7001	1.92 mPa·s
303.15 K, 101 kPa, x2 = 0.0998	1.794 mPa·s
303.15 K, 101 kPa, x2 = 0.2	1.852 mPa·s
303.15 K, 101 kPa, x2 = 0.2998	1.94 mPa·s
303.15 K, 101 kPa, x2 = 0.5001	2.135 mPa·s
303.15 K, 101 kPa, x2 = 0.6996	2.273 mPa·s
303.15 K, 101 kPa, x2 = 0.7953	2.212 mPa·s
303.15 K, 101 kPa, x2 = 0.8997	1.795 mPa·s
303.15 K, 101 kPa, x2 = 0.9401	1.463 mPa·s
303.15 K, 101 kPa, x2 = 0.98	1.025 mPa·s
308.15 K, 101 kPa, x1 = 0.01	0.81 mPa·s
308.15 K, 101 kPa, x1 = 0.02	0.912 mPa·s
308.15 K, 101 kPa, x1 = 0.05	1.187 mPa·s
308.15 K, 101 kPa, x1 = 0.07	1.342 mPa·s
308.15 K, 101 kPa, x1 = 0.1	1.53 mPa·s
308.15 K, 101 kPa, x1 = 0.2838	1.951 mPa·s
308.15 K, 101 kPa, x1 = 0.3	1.953 mPa·s
308.15 K, 101 kPa, x1 = 0.4	1.915 mPa·s
308.15 K, 101 kPa, x1 = 0.5	1.84 mPa·s
308.15 K, 101 kPa, x1 = 0.6	1.765 mPa·s
308.15 K, 101 kPa, x1 = 0.7001	1.686 mPa·s
308.15 K, 101 kPa, x1 = 0.8	1.623 mPa·s
308.15 K, 101 kPa, x2 = 0.9678	0.9401 mPa·s
313.15 K, 101 kPa, x1 = 0.01	0.728 mPa·s
313.15 K, 101 kPa, x1 = 0.02	0.807 mPa·s
313.15 K, 101 kPa, x1 = 0.05	1.039 mPa·s
313.15 K, 101 kPa, x1 = 0.07	1.167 mPa·s
313.15 K, 101 kPa, x1 = 0.1	1.33 mPa·s
313.15 K, 101 kPa, x1 = 0.2	1.625 mPa·s
313.15 K, 101 kPa, x1 = 0.2838	1.69 mPa·s
313.15 K, 101 kPa, x1 = 0.3	1.692 mPa·s
313.15 K, 101 kPa, x1 = 0.5	1.61 mPa·s
313.15 K, 101 kPa, x1 = 0.6	1.547 mPa·s
313.15 K, 101 kPa, x1 = 0.7001	1.485 mPa·s
318.15 K, 101 kPa, x1 = 0.01	0.659 mPa·s
318.15 K, 101 kPa, x1 = 0.02	0.726 mPa·s
318.15 K, 101 kPa, x1 = 0.05	0.919 mPa·s
318.15 K, 101 kPa, x1 = 0.07	1.027 mPa·s
318.15 K, 101 kPa, x1 = 0.1	1.164 mPa·s
318.15 K, 101 kPa, x1 = 0.2	1.42 mPa·s
318.15 K, 101 kPa, x1 = 0.3	1.479 mPa·s
318.15 K, 101 kPa, x1 = 0.4	1.46 mPa·s
318.15 K, 101 kPa, x1 = 0.5	1.416 mPa·s
318.15 K, 101 kPa, x1 = 0.6	1.366 mPa·s
318.15 K, 101 kPa, x1 = 0.7001	1.315 mPa·s
318.15 K, 101 kPa, x2 = 0.9678	0.819 mPa·s
323.15 K, 100 kPa, x1 = 0.07	0.917 mPa·s
323.15 K, 100 kPa, x1 = 0.2	1.212 mPa·s
323.15 K, 100 kPa, x1 = 0.3	1.314 mPa·s
323.15 K, 101 kPa, x1 = 0.01	0.6 mPa·s
323.15 K, 101 kPa, x1 = 0.02	0.657 mPa·s
323.15 K, 101 kPa, x1 = 0.05	0.82 mPa·s
323.15 K, 101 kPa, x1 = 0.07	0.912 mPa·s
323.15 K, 101 kPa, x1 = 0.1	1.03 mPa·s
323.15 K, 101 kPa, x1 = 0.2	1.25 mPa·s
323.15 K, 101 kPa, x1 = 0.5	1.252 mPa·s
323.15 K, 101 kPa, x1 = 0.6	1.212 mPa·s
323.15 K, 101 kPa, x1 = 0.7001	1.171 mPa·s
